Source: patent publication US20160130278A1 (TAISHO PHARMACEUTICAL CO., LTD, priority 2013, published 2016)
pIC50: −log10 of the molar value.

These molecules were tested against T1, human type 1 glycine transporter (GlyT1) (Homo sapiens, UniProt P48067) (assay: Glycine uptake inhibition experiment ([3H]glycine uptake)). Conditions: GlyT1.
T1 construct: T98G cells (glioma cells) expressing human type 1 glycine transporter (GlyT1) were used
T1 sequence (P48067 1-706): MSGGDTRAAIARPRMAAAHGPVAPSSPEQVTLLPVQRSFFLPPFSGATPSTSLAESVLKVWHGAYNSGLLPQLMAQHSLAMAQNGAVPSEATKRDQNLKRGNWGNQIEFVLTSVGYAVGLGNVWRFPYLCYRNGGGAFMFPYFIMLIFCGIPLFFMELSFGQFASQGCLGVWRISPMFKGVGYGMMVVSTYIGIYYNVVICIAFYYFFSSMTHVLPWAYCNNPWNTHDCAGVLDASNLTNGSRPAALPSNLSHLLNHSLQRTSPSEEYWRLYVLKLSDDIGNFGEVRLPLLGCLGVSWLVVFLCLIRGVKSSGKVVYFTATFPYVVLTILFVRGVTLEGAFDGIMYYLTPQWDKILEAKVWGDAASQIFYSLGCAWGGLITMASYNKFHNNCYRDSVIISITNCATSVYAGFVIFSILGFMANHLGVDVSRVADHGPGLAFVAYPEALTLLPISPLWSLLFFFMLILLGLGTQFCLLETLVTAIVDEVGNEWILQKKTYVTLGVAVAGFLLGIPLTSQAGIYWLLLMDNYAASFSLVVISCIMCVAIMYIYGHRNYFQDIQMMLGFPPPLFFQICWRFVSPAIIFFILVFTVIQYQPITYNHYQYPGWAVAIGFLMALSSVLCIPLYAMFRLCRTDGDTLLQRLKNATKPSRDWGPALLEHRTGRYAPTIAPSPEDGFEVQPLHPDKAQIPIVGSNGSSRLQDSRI
Format: cell-based
Method in brief: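 T98G glioma cells expressing human GlyT1 were pretreated 10 min with compound in HEPES buffer pH 7.4 (0.2% BSA), then incubated with compound plus 250 nM final [3H]glycine for 15 min at room temperature. Intracellular radioactivity was counted after NaOH lysis; 10 μM ALX5407 defined non-specific uptake. IC50 came from 10^−9–10^−5 M curves.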
For O=C(NC(c1cc(Cl)cc(Cl)c1)C1(O)CCCC1)c1nccc(C(F)(F)F)c1Cl (single isomer, unassigned) [Compound 115, 3-chloro-N-[(3,5-dichlorophenyl)(1-hydroxycyclopentyl)methyl]-4-(trifluoromethyl)pyridine-2-carboxamide], the pIC50 was 7.23.
Work on CC(=O)c1ccc(-c2cccc(C(NC(=O)c3cccc(C(F)(F)F)c3Cl)C3(O)CCCC3)c2)cc1 (stereo not drawn) [Compound 6, N-[(4′-acetylbiphenyl-3-yl)(1-hydroxycyclopentyl)methyl]-2-chloro-3-(trifluoromethyl)benzamide] yielded a pIC50 of 6.17.
For O=C(NC(c1cc(Cl)ccc1F)[C@]1(O)CC[C@@H](F)CC1)c1nccc(C(F)(F)F)c1Cl (single isomer, unassigned) [Compound 375, 3-chloro-N-[(5-chloro-2-fluroophenyl)(cis-4-fluoro-1-hydroxycyclohexyl)methyl]-4-(trifluoromethyl)pyridine-2-carboxamide], the pIC50 was 6.60.
Molecule Cc1cccc(C(NC(=O)c2nccc(C(F)(F)F)c2Cl)C2(O)CCCC2)c1 (stereo not drawn) [Compound 48, 3-chloro-N-[(1-hydroxycyclopentyl)(3-methylphenyl)methyl]-4-(trifluoromethyl)pyridine-2-carboxamide] has a pIC50 of 6.17.
CCn1cc(-c2cccc(C(NC(=O)c3c(Cl)ccc(OC)c3F)C3(O)CCC(F)(F)CC3)c2)cn1 (stereo not drawn) [Compound 183, 6-chloro-N-{(4,4-difluoro-1-hydroxycyclohexyl)[3-(1-ethyl-1H-pyrazol-4-yl)phenyl]methyl}-2-fluoro-3-methoxybenzamide] showed a pIC50 of 5.70.
Molecule O=C(NC(c1cccc(F)c1Cl)[C@]1(O)CC[C@@H](F)CC1)c1c(Cl)cccc1Cl (single isomer, unassigned) [Compound 254, 2,6-dichloro-N-[(2-chloro-3-fluorophenyl)(cis-4-fluoro-1-hydroxycyclohexyl)methyl]benzamide] has a pIC50 of 6.00.
O=C(NC(c1cccc(F)c1Cl)[C@]1(O)CC[C@@H](F)CC1)c1ccc(C(F)(F)F)nc1-n1ccnn1 (single isomer, unassigned) [Compound 394, N-[(2-chloro-3-fluorophenyl)(cis-4-fluoro-1-hydroxycyclohexyl)methyl]-2-(1H-1,2,3-triazol-1-yl)-6-(trifluoromethyl)pyridine-3-carboxamide] gave a pIC50 of 5.89.
O=C(NC(c1cccc(Cl)n1)[C@]1(O)CC[C@@H](F)CC1)c1ccc(C(F)(F)F)nc1Cl (single isomer, unassigned) [Compound 339, 2-chloro-N-[(6-chloropyridin-2-yl)(cis-4-fluoro-1-hydroxycyclohexyl)methyl]-6-(trifluoromethyl)pyridine-3-carboxamide] showed a pIC50 of 6.85.
O=C(NC(c1cccc(-c2cccnc2)c1)C1(O)CCCC1)c1nccc(C(F)(F)F)c1Cl (single isomer, unassigned) [Compound 24, 3-chloro-N-{(1-hydroxycyclopentyl)[3-(pyridin-3-yl)phenyl]methyl}-4-(trifluoromethyl)pyridine-2-carboxamide] gave a pIC50 of 5.70.
Work on O=C(NC(c1cccc(-c2cn[nH]c2)c1)C1(O)CCCC1)c1nccc(C(F)(F)F)c1Cl (stereo not drawn) [Compound 17, 3-chloro-N-{(1-hydroxycyclopentyl)[3-(1H-pyrazol-4-yl)phenyl]methyl}-4-(trifluoromethyl)pyridine-2-carboxamide] yielded a pIC50 of 7.85.
Cc1cccc(C)c1C(=O)NC(c1ccccc1)C1(O)CCCC1 (stereo not drawn) [Compound 30, N-[(1-hydroxycyclopentyl)(phenyl)methyl]-2,6-dimethylbenzamide] was tested, and the pIC50 was 5.19.
With O=C(NC(c1ccc(Cl)cc1)C1(O)CCCC1)c1nccc(C(F)(F)F)c1Cl (stereo not drawn) [Compound 46, 3-chloro-N-[(4-chlorophenyl)(1-hydroxycyclopentyl)methyl]-4-(trifluoromethyl)pyridine-2-carboxamide] the pIC50 was 5.77.
O=C(NC(c1cccc(F)n1)C1(O)CCC(F)(F)CC1)c1nccc(C(F)(F)F)c1Cl (single isomer, unassigned) [Compound 358, 3-chloro-N-[(4,4-difluoro-1-hydroxycyclohexyl)(6-fluoropyridin-2-yl)methyl]-4-(trifluoromethyl)pyridine-2-carboxamide] gave a pIC50 of 6.82.
O=C(NC(c1cccc(-c2cncnc2)c1)C1(O)CCCC1)c1cccc(C(F)(F)F)c1Cl (stereo not drawn) [Compound 7, 2-chloro-N-{(1-hydroxycyclopentyl)[3-(pyrimidin-5-yl)phenyl]methyl}-3-(trifluoromethyl)benzamide] was tested, and the pIC50 was 6.54.
With O=C(NC(c1cccc(-c2cncnc2)c1)C1(O)CCCC1)c1nccc(C(F)(F)F)c1Cl (stereo not drawn) [Compound 18, 3-chloro-N-{(1-hydroxycyclopentyl)[3-(pyrimidin-5-yl)phenyl]methyl}-4-(trifluoromethyl)pyridine-2-carboxamide] the pIC50 was 7.04.
For O=C(NC(c1cccnc1Cl)[C@]1(O)CC[C@@H](F)CC1)c1nccc(C(F)F)c1Cl (single isomer, unassigned) [Compound 324, 3-chloro-N-[(2-chloropyridin-3-yl)(cis-4-fluoro-1-hydroxycyclohexyl)methyl]-4-(difluoromethyl)pyridine-2-carboxamide], the pIC50 was 5.92.
In the case of CCn1cc(-c2cccc(C(NC(=O)c3nccc4ccccc34)C3(O)CCC(F)(F)CC3)c2)cn1 (stereo not drawn) [Compound 139, N-{(4,4-difluoro-1-hydroxycyclohexyl)[3-(1-ethyl-1H-pyrazol-4-yl)phenyl]methyl}isoquinoline-1-carboxamide], the pIC50 was 6.37.
With CS(=O)(=O)c1nc(C(F)(F)F)ccc1C(=O)NC(c1cccc(F)c1Cl)[C@]1(O)CC[C@@H](F)CC1 (single isomer, unassigned) [Compound 388, N-[(2-chloro-3-fluorophenyl)(cis-4-fluoro-1-hydroxycyclohexyl)methyl]-2-(methylsulfonyl)-6-(trifluoromethyl)pyridine-3-carboxamide] the pIC50 was 6.59.
For O=C(NC(c1cccc(C(F)(F)F)c1)C1(O)CCCC1)c1nccc(C(F)(F)F)c1Cl (stereo not drawn) [Compound 81, 3-chloro-N-{(1-hydroxycyclopentyl)[3-(trifluoromethyl)phenyl]methyl}-4-(trifluoromethyl)pyridine-2-carboxamide], the pIC50 was 6.02.
O=C(NC(c1cccc(Cl)c1)C1(O)CCCCC1)c1nccc(C(F)(F)F)c1Cl (single isomer, unassigned) [Compound 230, 3-chloro-N-[(3-chlorophenyl)(1-hydroxycyclohexyl)methyl]-4-(trifluoromethyl)pyridine-2-carboxamide] showed a pIC50 of 5.55.
O=C(NC(c1cccc(F)c1Cl)C1(O)CCC(F)(F)CC1)c1nccc(C(F)(F)F)c1Cl (single isomer, unassigned) [Compound 177, 3-chloro-N-[(2-chloro-3-fluorophenyl)(4,4-difluoro-1-hydroxycyclohexyl)methyl]-4-(trifluoromethyl)pyridine-2-carboxamide] showed a pIC50 of 7.00.
With CC(C)n1cc(-c2cccc(C(NC(=O)c3nccc(C(F)(F)F)c3Cl)C3(O)CCC(F)(F)CC3)c2)cn1 (single isomer, unassigned) [Compound 134, 3-chloro-N-[(4,4-difluoro-1-hydroxycyclohexyl){3-[1-(propan-2-yl)-1H-pyrazol-4-yl]phenyl}methyl]-4-(trifluoromethyl)pyridine-2-carboxamide] the pIC50 was 7.51.
Work on O=C(NC(c1cccc(Cl)n1)C1(O)CCC(F)(F)CC1)c1cccc(C(F)(F)F)c1Cl (single isomer, unassigned) [Compound 352, 2-chloro-N-[(6-chloropyridin-2-yl)(4,4-difluoro-1-hydroxycyclohexyl)methyl]-3-(trifluoromethyl)benzamide] yielded a pIC50 of 6.82.
Molecule O=C(NC(c1cccc(Cl)c1F)C1(O)CCC(F)CC1)c1nccc(C(F)(F)F)c1Cl (single isomer, unassigned) [Compound 200, 3-chloro-N-[(3-chloro-2-fluorophenyl)(4-fluoro-1-hydroxycyclohexyl)methyl}-4-(trifluoromethyl)pyridine-2-carboxamide] has a pIC50 of 7.19.
For O=C(N[C@@H](c1cccc(Cl)c1)[C@]1(O)CC[C@H](F)CC1)c1nccc(C(F)(F)F)c1Cl [Compound 187, 3-chloro-N-[(S)-(3-chlorophenyl)(trans-4-fluoro-1-hydroxycyclohexyl)methyl]-4-(trifluoromethyl)pyridine-2-carboxamide], the pIC50 was 6.68.
Work on O=C(NC(c1ccccc1Cl)C1(O)CCC(F)(F)CC1)c1ccnc(C(F)(F)F)c1Cl (single isomer, unassigned) [Compound 155, 3-chloro-N-[(2-chlorophenyl)(4,4-difluoro-1-hydroxycyclohexyl)methyl]-2-(trifluoromethyl)pyridine-4-carboxamide] yielded a pIC50 of 6.77.

Same assay, conditions: human GlyT1
O=C(NC(c1cccc(F)c1)C1(O)CCC(F)(F)CC1)c1ccnc(C(F)(F)F)c1Cl (single isomer, unassigned) [Compound 400, 3-chloro-N-[(4,4-difluoro-1-hydroxycyclohexyl)(3-fluorophenyl)methyl]-2-(trifluoromethyl)pyridine-4-carboxamide] showed a pIC50 of 6.64.
